PubChem BioAssay (NCI)
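Tested at 5 concentrations; 48 h exposure; 96-well plates; endpoints linearly interpolated, else capped at highest concentration. TGI is the concentration that stops growth completely.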

What was measured:
Assay in all cases: DTP human tumour cell line panel, 48 h
TK-10 renal = test system: TK-10 renal
HT29 colon = test system: HT29 colon
OVCAR-4 ovarian = test system: OVCAR-4 ovarian
SNB-19 CNS = test system: SNB-19 CNS
SK-MEL-5 melanoma = test system: SK-MEL-5 melanoma
K-562 leukemia = test system: K-562 leukemia
A549 NSCLC = test system: A549 NSCLC
MDA-MB-435 = test system: MDA-MB-435
RXF 393 renal = test system: RXF 393 renal
HCT-116 colon = test system: HCT-116 colon
SK-MEL-2 melanoma = test system: SK-MEL-2 melanoma
MCF7 breast = test system: MCF7 breast
SF-295 CNS = test system: SF-295 CNS
MDA-MB-231 breast = test system: MDA-MB-231 breast
NCI-H460 lung = test system: NCI-H460 lung
HCT-15 colon = test system: HCT-15 colon
BT-549 breast = test system: BT-549 breast
SF-539 CNS = test system: SF-539 CNS

| Compound | TGI (TK-10 renal) [µM] | TGI (HT29 colon) [µM] | TGI (OVCAR-4 ovarian) [µM] | TGI (SNB-19 CNS) [µM] | TGI (SK-MEL-5 melanoma) [µM] | TGI (K-562 leukemia) [µM] | TGI (A549 NSCLC) [µM] | TGI (MDA-MB-435) [µM] | TGI (RXF 393 renal) [µM] | TGI (HCT-116 colon) [µM] | TGI (SK-MEL-2 melanoma) [µM] | TGI (MCF7 breast) [µM] | TGI (SF-295 CNS) [µM] | TGI (MDA-MB-231 breast) [µM] | TGI (NCI-H460 lung) [µM] | TGI (HCT-15 colon) [µM] | TGI (BT-549 breast) [µM] | TGI (SF-539 CNS) [µM] |
| --- | --- | --- | --- | --- | --- | --- | --- | --- | --- | --- | --- | --- | --- | --- | --- | --- | --- | --- |
| O=S(=O)(SC1=NCCN1)c1ccc2ccccc2c1 | > 100 | 40 | > 100 | 39.1 | 64.5 | 55 | 86.3 | 42.8 | > 100 | 62.4 | 80 | > 100 | 65.8 | 42.9 | 42.8 | 71 | 83.9 | 63.7 |
| COc1ccc(C(=O)c2sc(N(C)C)nc2-c2ccccc2)cc1 | > 100 | > 100 | > 100 | > 100 | > 100 | > 100 | > 100 | 52 | > 100 | > 100 | 76.5 | > 100 | – | > 100 | 52.9 | > 100 | 75.6 | > 100 |
| COc1ccc(/C=C2\CCC(C)C3C2=NN(c2ccccc2)C3c2ccc(OC)c(OC)c2)cc1OC (stereo not drawn) | 6.93 | 18.3 | – | 36.2 | 9.68 | 18.5 | – | > 100 | 16.3 | 5.5 | 7.87 | 21.8 | 7.55 | 12.5 | – | 9.92 | 21.5 | 7.49 |
| CC(=N)OC1CC2CCC1(C)C2(C)C (stereo not drawn) | > 100 | > 100 | > 100 | – | > 100 | > 100 | > 100 | > 100 | > 100 | > 100 | – | > 100 | > 100 | > 100 | > 100 | > 100 | > 100 | > 100 |
| CCC(C)(C)C1CCC2c3c([nH]c4ccccc34)C3C(=O)N(c4ccc(OC)cc4)C(=O)C3C2C1 (stereo not drawn) | 56.2 | 24.9 | > 100 | 86.2 | – | > 100 | 35.5 | 43.5 | > 100 | 37.2 | 40.3 | 22.6 | 64.2 | 32.3 | > 100 | > 100 | 42.6 | 33.5 |
| C=C1[C@H](OC(C)=O)[C@H]2[C@@H](OC(C)=O)[C@@H](C)C[C@]2(C)C(=O)[C@H](C)/C=C/C(C)(C)C(=O)[C@H](OCC(C)C)[C@H]1OC(C)=O | > 25 | – | > 25 | > 25 | > 25 | – | – | > 25 | > 25 | > 25 | > 25 | > 25 | > 25 | > 25 | > 25 | > 25 | > 25 | > 25 |
| CCOC(=O)c1cc2c([nH]1)c(O)cc1c2ccn1Cc1ccccc1 | – | 30.2 | 35.4 | 28.2 | 24.5 | 25.3 | 30.3 | 31 | 21.9 | 23.8 | 36.6 | 44.4 | 31.6 | 49.1 | 34.7 | 30.5 | 32.2 | 40.2 |
| CO/C(N)=C(\C#N)N=Cc1ccco1 | > 100 | > 100 | > 100 | – | > 100 | > 100 | > 100 | > 100 | > 100 | > 100 | > 100 | > 100 | > 100 | > 100 | – | > 100 | > 100 | – |
| Clc1ccccc1-c1nc2ccc(C34CC5CC(CC(C5)C3)C4)cc2[nH]1 | 64.6 | 37.9 | > 100 | 21.6 | > 100 | > 100 | 23.4 | > 100 | 20.8 | > 100 | 40.8 | 23.4 | 32 | 37.9 | > 100 | > 100 | 43.5 | – |
| N#CC1C(=O)N(c2ccccc2)NC12OC(=O)c1ccncc12 (stereo not drawn) | – | > 20 | > 20 | > 20 | > 20 | > 20 | > 20 | > 20 | > 20 | > 20 | > 20 | > 20 | > 20 | > 20 | > 20 | > 20 | > 20 | > 20 |
| Nc1nc(Cl)c(CO)c(NCC2(CO)CC(CCc3ccccc3)C2)n1 (stereo not drawn) | > 100 | 81.6 | 54.9 | > 100 | 39.4 | 43.1 | 34.5 | 26.5 | 63 | 31.9 | – | 45.5 | > 100 | 39.1 | 56.9 | > 100 | 71.1 | > 100 |
| Cc1cc(S(=O)(=O)Nc2nc(N)n(-c3ccccn3)n2)c(S)cc1Cl | > 100 | > 100 | > 100 | > 100 | > 100 | > 100 | > 100 | > 100 | > 100 | > 100 | > 100 | > 100 | – | > 100 | > 100 | > 100 | > 100 | > 100 |
| COc1cc(/C=C2/SC(c3ccccc3)N(c3ccccc3Cl)C2=O)cc(OC)c1OC (stereo not drawn) | > 100 | – | > 100 | > 100 | 33.6 | > 100 | > 100 | > 100 | 70.2 | 67.7 | > 100 | > 100 | > 100 | > 100 | > 100 | > 100 | 85.1 | 36.6 |
| C[N+](C)(C)CCCSc1nc2ccccc2[nH]1 | > 100 | > 100 | > 100 | > 100 | > 100 | > 100 | > 100 | > 100 | > 100 | > 100 | > 100 | > 100 | > 100 | > 100 | > 100 | > 100 | > 100 | – |
| COc1cc(/C=N\N(C)C)cc(/C=N/N(C)C)c1O | > 100 | 48 | > 100 | > 100 | > 100 | – | > 100 | > 100 | > 100 | > 100 | 28.1 | > 100 | 8.9 | 80 | > 100 | > 100 | 61.9 | 37.1 |
| O=C(O)C1CCCN(CCc2c[nH]c3ccccc23)C1 (stereo not drawn) | > 100 | > 100 | > 100 | > 100 | – | > 100 | > 100 | > 100 | > 100 | > 100 | > 100 | > 100 | > 100 | > 100 | > 100 | > 100 | > 100 | > 100 |
| N#CC12CNCC1CN=N2 (stereo not drawn) | > 100 | > 100 | > 100 | > 100 | > 100 | > 100 | > 100 | > 100 | > 100 | > 100 | > 100 | > 100 | > 100 | > 100 | > 100 | > 100 | > 100 | – |
| Nc1cccnc1NCC1(CO)CCCC1 | > 100 | > 100 | > 100 | – | > 100 | > 100 | > 100 | > 100 | > 100 | > 100 | > 100 | > 100 | > 100 | > 100 | > 100 | > 100 | > 100 | > 100 |
| N#Cc1c(=O)n(-c2ccccc2)c(O)c2c(N)n[nH]c12 | > 100 | > 100 | > 100 | > 100 | > 100 | > 100 | > 100 | > 100 | > 100 | > 100 | > 100 | > 100 | – | > 100 | > 100 | > 100 | > 100 | > 100 |
| Cc1ccc([N+](=O)[O-])cc1S(=O)(=O)Nc1ccc(C2=NN(c3ccc([N+](=O)[O-])cc3[N+](=O)[O-])C(c3cccs3)C2)cc1 (stereo not drawn) | 81.7 | > 100 | 77.3 | > 100 | 26.1 | > 100 | > 100 | 51.4 | 54.3 | 29.3 | 32.7 | 80.1 | > 100 | 50.8 | – | 32.7 | 49.8 | 71.2 |
| O=c1[nH]nc(-c2ccccc2)n1-c1ccncc1 | > 100 | > 100 | > 100 | > 100 | > 100 | > 100 | > 100 | > 100 | > 100 | > 100 | – | > 100 | > 100 | > 100 | > 100 | > 100 | > 100 | > 100 |
| C/C(Cl)=N/OC(=O)Nc1ccc(S(N)(=O)=O)c(C)c1 | 17.9 | > 77.7 | 29.3 | 32.3 | 26.1 | 3.35 | 38.3 | 29.6 | 31.9 | 25 | 33.5 | 29.1 | 45.3 | 22 | > 100 | 3.86 | 25.1 | – |
| NCCCCC(NC(=O)C(N)Cc1ccc(O)cn1)C(=O)O (stereo not drawn) | > 100 | > 100 | > 100 | > 100 | > 100 | > 100 | > 100 | > 100 | > 100 | > 100 | – | > 100 | > 100 | > 100 | > 100 | > 100 | > 100 | > 100 |
| CC(C)(C)/C(=N\Nc1nc2ccccc2[nH]1)c1ccccn1 | 67.8 | > 100 | > 100 | > 100 | > 100 | > 100 | > 100 | > 100 | > 100 | 78 | > 100 | 67.2 | – | > 100 | > 100 | > 100 | > 100 | > 100 |
| O=c1cc(N2CCNCC2)nc2ccccn12 | > 100 | > 100 | – | > 100 | > 100 | > 100 | > 100 | > 100 | > 100 | > 100 | > 100 | > 100 | > 100 | > 100 | – | > 100 | > 100 | > 100 |
| CN(C)c1ccc(/C=C2/NC(=S)NC2=O)cc1 | > 100 | > 100 | > 100 | > 100 | > 100 | – | > 100 | > 100 | > 100 | > 100 | > 100 | > 100 | > 100 | > 100 | – | > 100 | > 100 | > 100 |
| CC(C)(C)C(=O)OCOP(=O)(OCOC(=O)C(C)(C)C)OCC1OC(n2ccc(=O)[nH]c2=O)C(N=[N+]=[N-])C1O (stereo not drawn) | 22.3 | 11.4 | 14 | 25.7 | 16.8 | > 100 | 14 | 15.5 | 7.07 | 12 | – | 14.7 | 25.4 | 21.1 | 12.1 | 10.7 | 14.9 | 8.88 |
| Cc1cc(C)c2c(O)c(S(=O)(=O)c3ccc(Cl)cc3)c(=O)oc2c1 | – | > 100 | > 100 | > 100 | > 100 | > 100 | > 100 | > 100 | > 100 | > 100 | > 100 | > 100 | > 100 | > 100 | > 100 | > 100 | > 100 | > 100 |
